For test [1], the target named is T1, Proteasomal ubiquitin receptor ADRM1/Bromodomain-containing protein 4 (Homo sapiens, UniProt O60885+Q16186). The test can be described thus: BYETAC activity at 26S proteasome subunit Rpn13/BRD4 in human Ramos cells assessed as induction of BRD4 degradation by measuring remaining activity at 10 nM incubated for 18 hrs by Western blot analysis (reference value: 100 %). Format: cell-based. (In general: In western blotting, separated proteins are transferred to a membrane and probed.)

In test [2] the target is T1, Proteasomal ubiquitin receptor ADRM1/Bromodomain-containing protein 4. As to the kind of experiment: BYETAC activity at 26S proteasome subunit Rpn13/BRD4 in human Ramos cells assessed as induction of BRD4 degradation by measuring remaining activity at 100 nM incubated for 18 hrs by Western blot analysis (reference value: 100 %). Format: cell-based.
The target is the same in test [3]. As to the kind of experiment: BYETAC activity at 26S proteasome subunit Rpn13/BRD4 in human Ramos cells assessed as induction of BRD4 degradation by measuring remaining activity at 500 nM incubated for 18 hrs by Western blot analysis (reference value: 100 %). Format: cell-based.
The test system of another test is Ramos. As to the kind of experiment: Antiproliferative activity against human Ramos cells assessed as reduction in cell viability incubated for 48 hrs. Format: functional, cell-based.
In test [4] the target is T1, Proteasomal ubiquitin receptor ADRM1/Bromodomain-containing protein 4. The test can be described thus: BYETAC activity at 26S proteasome subunit Rpn13/BRD4 in human U87 cells assessed as induction of BRD4 degradation by measuring remaining activity at 10 nM incubated for 18 hrs by Western blot analysis (reference value: 100 %). Format: cell-based.
Test [5] shares this target. As to the kind of experiment: BYETAC activity at 26S proteasome subunit Rpn13/BRD4 in human U87 cells assessed as induction of BRD4 degradation by measuring remaining activity at 100 nM incubated for 18 hrs by Western blot analysis (reference value: 100 %). Format: cell-based.
Test [6] has the same target. The test can be described thus: BYETAC activity at 26S proteasome subunit Rpn13/BRD4 in human U87 cells assessed as induction of BRD4 degradation by measuring remaining activity at 500 nM incubated for 18 hrs by Western blot analysis (reference value: 100 %). Format: cell-based.
The target is the same in test [7]. As to the kind of experiment: BYETAC activity at 26S proteasome subunit Rpn13/BRD4 in human Raji cells assessed as induction of BRD4 degradation by measuring remaining activity at 10 nM incubated for 18 hrs by Western blot analysis (reference value: 100 %). Format: cell-based.
For test [8] the target is unchanged. The test can be described thus: BYETAC activity at 26S proteasome subunit Rpn13/BRD4 in human Raji cells assessed as induction of BRD4 degradation by measuring remaining activity at 100 nM incubated for 18 hrs by Western blot analysis (reference value: 100 %). Format: cell-based.
For test [9] the target is unchanged. As to the kind of experiment: BYETAC activity at 26S proteasome subunit Rpn13/BRD4 in human Raji cells assessed as induction of BRD4 degradation by measuring remaining activity at 500 nM incubated for 18 hrs by Western blot analysis (reference value: 100 %). Format: cell-based.
Test [10] has the same target. The test can be described thus: BYETAC activity at 26S proteasome subunit Rpn13/BRD4 in human Ramos cells assessed as induction of BRD4 degradation incubated for 18 hrs by Western blot analysis. Format: cell-based.
For test [11] the target is unchanged. As to the kind of experiment: Induction of BRD4 degradation in human U87 cells transfected with Rpn-13 siRNA at 100 nM incubated for 18 hrs by Western blot analysis. Format: cell-based.
Test [12] shares this target. As to the kind of experiment: BYETAC activity at 26S proteasome subunit Rpn13/BRD4 in human Ramos cells assessed as induction of BRD4 degradation by measuring remaining activity at 100 nM incubated for 18 hrs in presence of TAK-243 by Western blot analysis relative to control. Format: cell-based.
For test [13] the target is unchanged. The test can be described thus: BYETAC activity at 26S proteasome subunit Rpn13/BRD4 in human Ramos cells assessed as induction of BRD4 degradation at 100 nM incubated for 18 hrs in presence of MG132 by Western blot analysis. Format: cell-based.
Test [14] has the same target. The test can be described thus: BYETAC activity at 26S proteasome subunit Rpn13/BRD4 in human U87 cells assessed as induction of BRD4 degradation at 500 nM measured up to 72 hrs by Western blot analysis. Format: cell-based.
The target in test [15] is Proteasomal ubiquitin receptor ADRM1/Bromodomain-containing protein 2 (Homo sapiens) (UniProt P25440+Q16186). The test can be described thus: BYETAC activity at 26S proteasome subunit Rpn13/BRD2 in human Ramos cells assessed as induction of BRD2 degradation at 100 nM incubated for 18 hrs by Western blot analysis. Format: cell-based.
Test [16] has as its target Proteasomal ubiquitin receptor ADRM1/Bromodomain-containing protein 3 (Homo sapiens) (UniProt Q15059+Q16186). As to the kind of experiment: BYETAC activity at 26S proteasome subunit Rpn13/BRD3 in human Ramos cells assessed as induction of BRD3 degradation at 100 nM incubated for 18 hrs by Western blot analysis. Format: cell-based.
In test [17] the target is T1, Proteasomal ubiquitin receptor ADRM1/Bromodomain-containing protein 4. As to the kind of experiment: BYETAC activity at 26S proteasome subunit Rpn13/BRD4 in human Ramos cells assessed as induction of BRD4 degradation at 500 nM preincubated with TCL1 for 1 hrs followed by compound addition and measured after 18 hrs by competitive Western blot analysis. Format: cell-based.

For test [18] the target is unchanged. As to the kind of experiment: BYETAC activity at 26S proteasome subunit Rpn13/BRD4 in human Ramos cells assessed as induction of BRD4 degradation at 500 nM preincubated with JQ1 for 1 hrs followed by compound addition and measured after 18 hrs by competitive Western blot analysis. Format: cell-based.
The target is the same in test [19]. As to the kind of experiment: Binding affinity to 26S proteasome subunit Rpn13/BRD4 in human Ramos cells assessed as ternary complex formation at 5 uM incubated for 3 hrs by co-immunoprecipitation analysis. Format: cell-based.
The target in test [20] is Proteasomal ubiquitin receptor ADRM1 (Homo sapiens) (UniProt Q16186). The test can be described thus: Induction of Rpn-13 stabilization in human Ramos cells assessed as increase in Rpn-13 level at 5 uM incubated for 3 hrs by co-immunoprecipitation analysis. Format: cell-based.
Test [21] deals with T1, Proteasomal ubiquitin receptor ADRM1/Bromodomain-containing protein 4. As to the kind of experiment: Induction of BRD4 degradation in human Ramos cells at 10 to 1000 nM incubated for 18 hrs by Western blot analysis. Format: cell-based. The settings on record: dose 10-1000 nM.
The target in test [22] is T2, Proteasomal ubiquitin receptor ADRM1/Tyrosine-protein kinase BTK (Homo sapiens) (UniProt Q06187+Q16186). The test can be described thus: BYETAC activity at 26S proteasome subunit Rpn13/BTK in human Ramos cells assessed as induction of BTK degradation by measuring remaining activity at 0.5 uM incubated for 18 hrs by Western blot analysis (reference value: 100 %). Format: cell-based.

The target of test [23] is T2, Proteasomal ubiquitin receptor ADRM1/Tyrosine-protein kinase BTK (Homo sapiens). The test can be described thus: BYETAC activity at 26S proteasome subunit Rpn13/BTK in human Ramos cells assessed as induction of BTK degradation by measuring remaining activity at 1 uM incubated for 18 hrs by Western blot analysis (reference value: 100 %). Format: cell-based.
Test [24] has the same target. The test can be described thus: BYETAC activity at 26S proteasome subunit Rpn13/BTK in human Ramos cells assessed as induction of BTK degradation by measuring remaining activity at 10 uM incubated for 18 hrs by Western blot analysis (reference value: 100 %). Format: cell-based.
For test [25] the target is unchanged. As to the kind of experiment: BYETAC activity at 26S proteasome subunit Rpn13/BTK in human Ramos cells assessed as induction of BTK degradation by measuring remaining activity at 25 uM incubated for 18 hrs by Western blot analysis (reference value: 100 %). Format: cell-based.
Test [26] deals with Proteasomal ubiquitin receptor ADRM1/Glycogen synthase kinase-3 beta (Homo sapiens) (UniProt P49841+Q16186). The test can be described thus: Halo-BYETAC activity at 26S proteasome subunit Rpn13/Halo-tagged GSK3beta (unknown origin) transfected in human U87 cells assessed as induction of Halo-tagged GSK3beta degradation at 1 to 10 uM incubated for 18 hrs by Western blot analysis. Format: cell-based. Conditions: dose 1-10 µM.

The target of test [27] is T2, Proteasomal ubiquitin receptor ADRM1/Tyrosine-protein kinase BTK (Homo sapiens). The test can be described thus: BYETAC activity at 26S proteasome subunit Rpn13/BTK in human Ramos cells assessed as induction of BTK degradation at 1 to 25 uM incubated for 18 hrs by Western blot analysis. Conditions: dose 1-25 µM. Format: cell-based.

Consider 9 compounds from ChEMBL document CHEMBL6134889, “ByeTAC: Bypassing E-Ligase-Targeting Chimeras for Direct Proteasome Degradation” (J Med Chem, 2025).

One may read the IC50 as the concentration that gives 50% inhibition. The DC50 is the concentration at which degradation of the target reaches its halfway point.

The source made the active and inactive calls. The calls are words filed in the database; no cut-off is given here.

`Cc1sc2c(c1C)C(c1ccc(Cl)cc1)=N[C@@H](CC(=O)NCCOCCOCCOCCOCCNC(=O)CC1Sc3nnc(Cc4ccc(Br)cc4)n3N=C1c1ccc(Cl)cc1)c1nnc(C)n1-2` (stereo not given in full): the Activity in test [1] was found to be 91%; in test [2], 55%; in test [3], 33%; in [4], 66%; in [5], 36%; in [6], 20%. The Activity came out at 95% in test [7], 72% in [8], 62% in test [9] and 40% in [12]. In addition, the IC50 with Ramos was 0.0305 µM. In addition, the 50% degradation concentration (DC50) in test [10] is around 0.5 µM. Besides, the result in test [11], in test [13], in test [17] and in test [18] was inactive. The outcome in test [14], in [15], in test [16], in [19] and in test [20] was Active.
In the case of `Cc1sc2c(c1C)C(c1ccc(Cl)cc1)=N[C@@H](CC(=O)Nc1ccc(OCCOCCOCCOCCNc3cccc4c3C(=O)N(C3CCC(=O)NC3=O)C4=O)cc1)c1nnc(C)n1-2` (stereo not given in full), in the test on Ramos, the IC50 stood at 0.0019 µM.
Take `O=C(O)CC1Sc2nnc(Cc3ccc(Br)cc3)n2N=C1c1ccc(Cl)cc1` (stereo not given): the outcome in [21] was inactive.
Regarding `Cc1sc2c(c1C)C(c1ccc(Cl)cc1)=N[C@@H](CC(=O)NCCOCCOCCOCCNC(=O)CC1Sc3nnc(Cc4ccc(Br)cc4)n3N=C1c1ccc(Cl)cc1)c1nnc(C)n1-2` (stereo not given in full), the Activity in test [1] came out at 111%; in test [2], 69%; in [3] it was 35%; in test [4], 83%; in test [5], 53%; in test [6] it was 36%. For the same compound, the Activity in test [7] is 78%; in test [8], 77%; in test [9] it was 68%. The DC50 in test [10] is around 0.5 µM.
`Nc1ncnc2c1c(-c1ccc(Oc3ccccc3)cc1)nn2[C@H]1CCCN(C(=O)CCC(=O)NCCOCCOCCOCCOCCOCCOCCOCCOCCNC(=O)CC2Sc3nnc(Cc4ccc(Br)cc4)n3N=C2c2ccc(Cl)cc2)C1` (stereo not given in full): the Activity in test [22] was found to be 97%; in test [23], 72%; in test [24], 3%; in test [25], 6%.
As to `Cc1sc2c(c1C)C(c1ccc(Cl)cc1)=N[C@@H](CC(=O)NCCOCCOCCOCCOCCOCCOCCOCCNC(=O)CC1Sc3nnc(Cc4ccc(Br)cc4)n3N=C1c1ccc(Cl)cc1)c1nnc(C)n1-2` (stereo not given in full), the Activity is 107% in test [1], 100% in [2] and 80% in [3].
On to `ClCCCCCCNCCOCCOCCNCC1Sc2nnc(Cc3ccc(Br)cc3)n2N=C1c1ccc(Cl)cc1` (stereo not given), for which the result in test [26] was Active.
In the case of `Cc1sc2c(c1C)C(c1ccc(Cl)cc1)=N[C@@H](CC(=O)NCCOCCOCCOCCOCCOCCNC(=O)CC1Sc3nnc(Cc4ccc(Br)cc4)n3N=C1c1ccc(Cl)cc1)c1nnc(C)n1-2` (stereo not given in full), the Activity in [1] was determined as 92%; in test [2] it was 87%; in [3], 60%.
For the compound `Nc1ncnc2c1c(-c1ccc(Oc3ccccc3)cc1)nn2[C@H]1CCCN(C(=O)COCCOCCOCCOCCNC(=O)CC2Sc3nnc(Cc4ccc(Br)cc4)n3N=C2c2ccc(Cl)cc2)C1` (stereo not given in full), the result in test [27] was inactive.
